“Also recorded” adds a separate entry of the source.
Tests used:
[1] = Fluorescence titration of cadmium ions in cuvettes; type: binding; conditions: 50 mM MOPS pH 7, metal titrated up to 100 μM
Experimental: A dye stock (709 μM) solution of Compound 10 was prepared in DMSO. Lead, cadmium and mercury solutions from 0-100 μM were prepared in disposable cuvettes by diluting a 100 μM metal stock solutions to a final volume of 2 mL with 50 mM MOPS (pH7). The 100 μM metal stocks were also in 50 mM MOPS (pH7). For the cadmium titration, dye stock was added to give a final concentration of 0.35 μM. For the lead and mercury titrations, dye stock was added to give a final concentration of 1.42 μM. Samples were excited at 492 nm and fluorescence was recorded at 517 nm. […] See, FIG. 2.
The experiment was performed as described above except that the exact dye concentrations were unknown. Sample was dissolved in DMSO and diluted 2× in nano-pure H2O before running. Ex./Em. 549/577 nm. […] See, FIG. 1.
The experiment was performed as described above for cadmium ion detection except that the exact dye concentrations were unknown. Ex./Em. 348/397/481 nm (ratiometric).

[2] = test system: intracellular Pb or Cd ions in 3T3 cells; experiment: Compound 12 on 3T3 cells with PbCl2 or CdCl2, then TPEN chelation; type: cell-based; conditions: 400 nM Compound 12, 1 μM ionomycin
Experimental: 500 nM, 250 nM and 125 nM of PbCl2 and at concentration range 100 uM, 50 μM and 25 μM of CdCl2.
After fluorescence acquisition, TPEN, a cell-permeant heavy metal chelator, was added to the samples.

| Structure (SMILES) | Kd [1] | Change of Compound 12 fluorescence after addition of the chelator [2] |
| --- | --- | --- |
| O=C(O)COc1ccccc1OCCOc1cc(-c2cc3ccc(C(=O)O)cc3[nH]2)ccc1N(CC(=O)O)CC(=O)O [Compound 18] | 1.2 µM |  |
| c1ccc(CN(CCN(Cc2ccccn2)Cc2ccccn2)Cc2ccccn2)nc1 [TPEN, tetrakis-(2-pyridylmethyl)ethylenediamine] |  | drop of fluorescence after TPEN addition; also recorded: drop in fluorescence from the viable cells |

Reference: patent publication US8680320B2, “Heavy metal binding compounds and their method of use” (Life Technologies Corporation, priority 2006, dated 2014)
